Source: publication PMC8386730, “Pyrrolidine-based 3-deoxysphingosylphosphorylcholine analogs as possible candidates against neglected tropical diseases (NTDs): identification of hit compounds towards development of potential treatment of Leishmania donovani” (Journal of Enzyme Inhibition and Medicinal Chemistry, 2021)
Read-outs that look alike come from different tables or passages of the source. Values belong to the molecule of their own block, whether it stands above or below them.

Columns and labels:
[1] = system: L. donovani promastigotes; test: Growth inhibition of L. donovani promastigotes (resazurin-based assay); assay type: cell-based, Leishmania donovani; set-up: Inhibition at both 50 and 25 µM concentrations: unit: %; details: for inhibition at 25 µM / inhibition at 50 µM / IC50: Leishmania donovani, 72 h, incubation 3 days; for inhibition at 25 µM / inhibition at 50 µM: relative to control; for inhibition at 25 µM: read-out: % Inhibition at 25 µM concentration; for inhibition at 50 µM: read-out: % Inhibition at 50 µM concentration; for IC50: extracellular promastigotes, duplicates, read-out: IC50 ± SD, growth of L. donovani promastigotes; for Potency against promastigotes (in words): dose-response evaluation
Method: Out of 20 known Leishmania species pathogenic to humans, L. donovani, which causes visceral leishmaniasis, is the most fatal. Consequently, an in vitro model of L. donovani promastigotes[26] was selected to evaluate the activity of the synthesised pyrrolidine-based 3-deoxysphingosylphosphorylcholine analogs 1e–i, 2a–f, 3a–f at two concentration (50 and 25 µM) employing miltefosine and erufosine (ErPC; erucylphosphocholine) as reference standards using a resazurin-based assay.
For comparison, erufosine and miltefosine were used as reference standards.
L. donovani MHOM/SD/62/1S-CL2D parasites were cultured as promastigotes at 28 °C in M199 medium (Sigma-Aldrich, St. Louis, MO, USA) with 40 mM HEPES, 0.1 mM adenine, 0.0001% biotin, and 4.62 mM NaHCO3 supplemented with 10% foetal bovine serum (FBS, Gibco, Carlsbad, CA, USA), […] penicillin (Gibco), and 100 µg/mL streptomycin (Gibco). Parasites were sub-cultured every 3 or 4 days and maintained for 10 passages.
The plates were analysed using a Victor3TM plate reader (PerkinElmer, Inc., Waltham, MA, USA) at 590 nm (emission) and 530 nm (excitation). Miltefosine and erufosine were used as the reference standards. All measured and calculated values are the averages of duplicates. The dose-response curves were generated by GraphPad Prism 6 software using a sigmoidal dose-response equation with a variable hill slope option.

[2] = system: intracellular L. donovani amastigotes; test: Intracellular L. donovani amastigotes in infected THP-1 cells (image-based); assay type: cell-based; details: Leishmania donovani, 72 h, duplicates, read-out: Intracellular L. donovani IC50 ± SD
Source text: (§1) As the extracellular promastigotes form represents the insect stage of the parasite, assessment of activity is needed to confirm activity against the intracellular amastigotes form, which is the human host form (mammalian host form). In addition, a preliminary assessment of selectivity and safety might be desirable to evaluate the quality of hit compounds. Accordingly, compound 1e and its enantiomer; 1a, in parallel with standard drugs miltefosine and erufosine were submitted for evaluation in intracellular amastigotes model using infected THP-1 cells; human monocytic cell line derived from an acute monocytic leukaemia. In addition, cytotoxicity of tested compounds and standards were evaluated against THP-1 cells and normal human embryonic kidney cells; HEK293T to evaluate selectivity and safety. PMA-treated THP-1 human monocytic cells were seeded at 0.8 × 10^4 cells per well in a 384-well culture plate (Greiner Bio-One, Kremsmünster, Austria) in RPMI-1640 complete medium supplemented with 10% FBS. After 48 h of incubation at 37 °C in the presence of 5% CO2, infected THP-1 cells were treated with miltefosine (at 80 µM, positive control), and tested compounds (at 200 µM). The negative control consisted of THP-1 infected with the parasite with only 0.5% DMSO. After 72 h, the cells that were infected and treated with the drug were washed with serum-free RPMI-1640 medium. The cells and parasites were stained using 5 µM DAPI and 4% PFA. The images were acquired based on reading using an Operetta® automated microscope (PerkinElmer, Inc., Waltham, MA 02451, USA). They were further analysed using Columbus^TM (PerkinElmer, Inc. Waltham, MA, USA) software to quantify parasite numbers, and host cell numbers. In brief, large-sized nucleus of host cells was first detected using DAPI signal and the host cell boundary masking was performed using the low-intensity signals from cytosols. Then the small-sized nucleus signal by DAPI was used to identify parasites within the area of the masked host cell. The DRC results were further assessed in a dose-dilution manner (two-fold serial dilution for 10 points starting from 200 µM).

[3] = Cytotoxicity against THP-1 host cells; assay type: cell-based, human; details: human, PMA-treated THP-1 monocytic cells infected with the parasite; THP-1 cells, duplicates; read-out: THP-1 cell CC50 ± SD
Source text: as §1

THP-1 cells = test: Cytotoxicity against THP-1 host cells; assay type: cell-based, human; details: CC50 THP-1 divided by IC50 intracellular L. donovani
Source text: as §1

[4] = Cytotoxicity against HEK293T cells (resazurin); assay type: cell-based; details: human, duplicates, read-out: HEK293T CC50 ± SD
Source text: As the extracellular promastigotes form represents the insect stage of the parasite, assessment of activity is needed to confirm activity against the intracellular amastigotes form, which is the human host form (mammalian host form). In addition, a preliminary assessment of selectivity and safety might be desirable to evaluate the quality of hit compounds. Accordingly, compound 1e and its enantiomer; 1a, in parallel with standard drugs miltefosine and erufosine were submitted for evaluation in intracellular amastigotes model using infected THP-1 cells; human monocytic cell line derived from an acute monocytic leukaemia. In addition, cytotoxicity of tested compounds and standards were evaluated against THP-1 cells and normal human embryonic kidney cells; HEK293T to evaluate selectivity and safety. Cytotoxicity against HEK293T cell growth was assayed by measuring the conversion of resazurin to resorufin. The assays were performed in 384-well plates that were seeded with HEK293T cells (1000 cells per well). After seeding, the cells were exposed to the compounds for 3 days. Resazurin sodium salt (200 µM; R7017; Sigma-Aldrich, St. Louis, MO, USA) was then added, and the samples were incubated for 5 h. After incubation, the […] were fixed using 4% paraformaldehyde, and the plates were analysed using a Victor3TM plate reader (PerkinElmer, Inc., Waltham, MA, USA) at 590 nm (emission) and 530 nm (excitation). Miltefosine and saponin were used as the reference drugs for the HEK293T growth inhibition.

L. major promastigotes = system: L. major promastigotes; set-up: method as in PMID 21267500; details: cited from earlier work
[5] = system: L. donovani promastigotes; set-up: method as in PMID 22506086; details: literature value; read-out: Reported IC50 against L. donovani promastigotes; cited from earlier work

Compound: CCCCCCCC/C=C\CCCCCCCC(=O)N1CCC[C@@H]1COP(=O)([O-])OCC[N+](C)(C)C [Compound 1c]
inhibition at 25 µM [1]: 10%
inhibition at 50 µM [1]: 51%

Compound: CCCCCCCC/C=C\CCCCCCCCCCCC(=O)N1CCC[C@@H]1COP(=O)([O-])OCC[N+](C)(C)C [Compound 1d]
inhibition at 25 µM [1]: 107%
inhibition at 50 µM [1]: 108%
IC50 [1]: 46.65 ± 0.45 µM
Inhibition at both 50 and 25 µM concentrations [1]: ≥ 100

Compound: CCCCCCCC/C=C\CCCCCCCC(=O)N1CCC[C@H]1COP(=O)([O-])OCC[N+](C)(C)C [Compound 1f]
inhibition at 25 µM [1]: 65%
inhibition at 50 µM [1]: 108%

Compound: CCCCC/C=C\C/C=C\CCCCCCCC(=O)N1CCC[C@H]1COP(=O)([O-])OCC[N+](C)(C)C [Compound 1h]
inhibition at 25 µM [1]: -18%
inhibition at 50 µM [1]: 0%
Activity at both 50 and 25 µM concentrations (in words) [1]: completely inactive

Compound: CC/C=C\C/C=C\C/C=C\CCCCCCCC(=O)N1CCC[C@H]1COP(=O)([O-])OCC[N+](C)(C)C [Compound 1i]
inhibition at 25 µM [1]: -16%
inhibition at 50 µM [1]: 1%
Activity at both 50 and 25 µM concentrations (in words) [1]: completely inactive

Compound: CCCCCC/C=C\CCCCCCCC(=O)N1CC[C@H](COP(=O)([O-])OCC[N+](C)(C)C)C1 [Compound 2b]
inhibition at 25 µM [1]: 27%
inhibition at 50 µM [1]: 98%

Compound: CCCCCCCC/C=C\CCCCCCCC(=O)N1CC[C@H](COP(=O)([O-])OCC[N+](C)(C)C)C1 [Compound 2c]
inhibition at 25 µM [1]: -19%
inhibition at 50 µM [1]: 107%

Compound: CCCCCCCC/C=C\CCCCCCCCCCCC(=O)N1CC[C@H](COP(=O)([O-])OCC[N+](C)(C)C)C1 [Compound 2d]
inhibition at 25 µM [1]: 107%
inhibition at 50 µM [1]: 109%
IC50 [1]: > 100 µM
Activity at both 50 and 25 µM concentrations (in words) [1]: highly active
Potency against promastigotes (in words) [1]: poor potency

Compound: CCCCC/C=C\C/C=C\CCCCCCCC(=O)N1CC[C@H](COP(=O)([O-])OCC[N+](C)(C)C)C1 [Compound 2e]
inhibition at 25 µM [1]: 34%
inhibition at 50 µM [1]: 101%

Compound: CC/C=C\C/C=C\C/C=C\CCCCCCCC(=O)N1CC[C@H](COP(=O)([O-])OCC[N+](C)(C)C)C1 [Compound 2f]
inhibition at 25 µM [1]: 0%
inhibition at 50 µM [1]: 9%
Activity at both 50 and 25 µM concentrations (in words) [1]: completely inactive

Compound: CCCCCCCCCCCCCCCC(=O)N1CC[C@@H](OP(=O)([O-])OCC[N+](C)(C)C)C1 [Compound 3a]
inhibition at 25 µM [1]: 108%
inhibition at 50 µM [1]: 109%
IC50 [1]: > 100 µM
Activity at both 50 and 25 µM concentrations (in words) [1]: highly active
Potency against promastigotes (in words) [1]: weak potency

Compound: CCCCCC/C=C\CCCCCCCC(=O)N1CC[C@@H](OP(=O)([O-])OCC[N+](C)(C)C)C1 [Compound 3b]
inhibition at 25 µM [1]: 67%
inhibition at 50 µM [1]: 90%

Compound: CCCCC/C=C\C/C=C\CCCCCCCC(=O)N1CC[C@@H](OP(=O)([O-])OCC[N+](C)(C)C)C1 [Compound 3e]
inhibition at 25 µM [1]: 0%
inhibition at 50 µM [1]: 69%

Compound: CC/C=C\C/C=C\C/C=C\CCCCCCCC(=O)N1CC[C@@H](OP(=O)([O-])OCC[N+](C)(C)C)C1 [Compound 3f]
inhibition at 25 µM [1]: -14%
inhibition at 50 µM [1]: 1%
Activity at both 50 and 25 µM concentrations (in words) [1]: completely inactive

Compound: CCCCCCCCCCCCC/C=C/C[C@@H](N)CO [Compound 26an]
Cytotoxicity against L. major promastigotes (in words) (L. major promastigotes): significant cytotoxicity

The next lines start with results.

IC50 [1]: 52.6 ± 1.44 µM
IC50 [2]: 11.3 ± 1.81 µM
Compound: CCCCCCCCCCCCCCCC(=O)N1CCC[C@@H]1COP(=O)([O-])OCC[N+](C)(C)C [Compound 1a]
inhibition at 25 µM [1]: 107%
inhibition at 50 µM [1]: 108%
Inhibition at both 50 and 25 µM concentrations [1]: ≥ 100
CC50 at 72 h [3]: 25.3 ± 3.56 µM
Selectivity index (THP-1 cells): 2.2
CC50 at 3 days [4]: 30.6 ± 2.31 µM

IC50 [1]: 66.1 ± 3.61 µM
Compound: CCCCCC/C=C\CCCCCCCC(=O)N1CCC[C@@H]1COP(=O)([O-])OCC[N+](C)(C)C [Compound 1b]
inhibition at 25 µM [1]: 108%
inhibition at 50 µM [1]: 109%
Inhibition at both 50 and 25 µM concentrations [1]: ≥ 100

IC50 [1]: 28.3 ± 1.38 µM
IC50 [2]: 14.3 ± 2.03 µM
Compound: CCCCCCCCCCCCCCCC(=O)N1CCC[C@H]1COP(=O)([O-])OCC[N+](C)(C)C [Compound 1e]
inhibition at 25 µM [1]: 107%
inhibition at 50 µM [1]: 107%
Activity at both 50 and 25 µM concentrations (in words) [1]: highly active
CC50 at 72 h [3]: 15.8 ± 3.23 µM
Selectivity index (THP-1 cells): 1.1
CC50 at 3 days [4]: 45.1 ± 5.01 µM

IC50 [1]: 68.47 ± 0.04 µM
Compound: CCCCCCCC/C=C\CCCCCCCCCCCC(=O)N1CCC[C@H]1COP(=O)([O-])OCC[N+](C)(C)C [Compound 1g]
inhibition at 25 µM [1]: 110%
inhibition at 50 µM [1]: 109%
Activity at both 50 and 25 µM concentrations (in words) [1]: highly active

IC50 [1]: 54.6 ± 2.02 µM
Compound: CCCCCCCCCCCCCCCC(=O)N1CC[C@H](COP(=O)([O-])OCC[N+](C)(C)C)C1 [Compound 2a]
inhibition at 25 µM [1]: 107%
inhibition at 50 µM [1]: 108%
Activity at both 50 and 25 µM concentrations (in words) [1]: highly active

IC50 [1]: > 100 µM
Compound: CCCCCCCC/C=C\CCCCCCCC(=O)N1CC[C@@H](OP(=O)([O-])OCC[N+](C)(C)C)C1 [Compound 3c]
inhibition at 25 µM [1]: 106%
inhibition at 50 µM [1]: 106%
Activity at both 50 and 25 µM concentrations (in words) [1]: maintained high activity
Potency against promastigotes (in words) [1]: weak potency

IC50 [1]: > 100 µM
Compound: CCCCCCCC/C=C\CCCCCCCCCCCC(=O)N1CC[C@@H](OP(=O)([O-])OCC[N+](C)(C)C)C1 [Compound 3d]
inhibition at 25 µM [1]: 107%
inhibition at 50 µM [1]: 104%
Activity at both 50 and 25 µM concentrations (in words) [1]: highly active
Potency against promastigotes (in words) [1]: poor potency

IC50 [1]: 9.75 ± 2.41 µM
IC50 [2]: 3.61 ± 1.05 µM
Compound: CCCCCCCC/C=C\CCCCCCCCCCCCOP(=O)([O-])OCC[N+](C)(C)C [Erufosine, erucylphosphocholine, reference compound]
inhibition at 25 µM [1]: 106%
inhibition at 50 µM [1]: 108%
CC50 at 72 h [3]: 3.94 ± 1.02 µM
Selectivity index (THP-1 cells): 1.1
CC50 at 3 days [4]: 40.8 ± 3.36 µM
IC50 [5]: 13.3 µM

IC50 [1]: 4.94 ± 0.47 µM
IC50 [2]: 2.55 ± 0.63 µM
Compound: CCCCCCCCCCCCCCCCOP(=O)([O-])OCC[N+](C)(C)C [Miltefosine, miltefosine, reference compound]
inhibition at 25 µM [1]: 100%
inhibition at 50 µM [1]: 100%
CC50 at 72 h [3]: 40.8 ± 3.32 µM
Selectivity index (THP-1 cells): 16.0
CC50 at 3 days [4]: > 200 µM
IC50 [5]: 3.1 µM
